Assay results taken from US20030144345A1, “Treatment of metabolic diseases with soraphen derivatives” (priority 2001, published 2003).

Legend:
[1] = target: T1, human ACCβ enzyme (Homo sapiens, UniProt O00763); assay: Human ACCβ enzyme activity / inhibition assay (radiometric); assay type: biochemical; conditions: for Effect on K0.5 of K-citrate / Effect on Vmax of the ACC enzyme reaction: titration of compound at 0.5, 1 and 2 times IC50
T1 construct: The cloning of the full length human muscle-type ACCβ cDNA and expression in HEK293 cells; made in house; host or cells: HEK293 cells (ATCC CRL-1573), plasmid pRF33D
T1 sequence (O00763 whole entry): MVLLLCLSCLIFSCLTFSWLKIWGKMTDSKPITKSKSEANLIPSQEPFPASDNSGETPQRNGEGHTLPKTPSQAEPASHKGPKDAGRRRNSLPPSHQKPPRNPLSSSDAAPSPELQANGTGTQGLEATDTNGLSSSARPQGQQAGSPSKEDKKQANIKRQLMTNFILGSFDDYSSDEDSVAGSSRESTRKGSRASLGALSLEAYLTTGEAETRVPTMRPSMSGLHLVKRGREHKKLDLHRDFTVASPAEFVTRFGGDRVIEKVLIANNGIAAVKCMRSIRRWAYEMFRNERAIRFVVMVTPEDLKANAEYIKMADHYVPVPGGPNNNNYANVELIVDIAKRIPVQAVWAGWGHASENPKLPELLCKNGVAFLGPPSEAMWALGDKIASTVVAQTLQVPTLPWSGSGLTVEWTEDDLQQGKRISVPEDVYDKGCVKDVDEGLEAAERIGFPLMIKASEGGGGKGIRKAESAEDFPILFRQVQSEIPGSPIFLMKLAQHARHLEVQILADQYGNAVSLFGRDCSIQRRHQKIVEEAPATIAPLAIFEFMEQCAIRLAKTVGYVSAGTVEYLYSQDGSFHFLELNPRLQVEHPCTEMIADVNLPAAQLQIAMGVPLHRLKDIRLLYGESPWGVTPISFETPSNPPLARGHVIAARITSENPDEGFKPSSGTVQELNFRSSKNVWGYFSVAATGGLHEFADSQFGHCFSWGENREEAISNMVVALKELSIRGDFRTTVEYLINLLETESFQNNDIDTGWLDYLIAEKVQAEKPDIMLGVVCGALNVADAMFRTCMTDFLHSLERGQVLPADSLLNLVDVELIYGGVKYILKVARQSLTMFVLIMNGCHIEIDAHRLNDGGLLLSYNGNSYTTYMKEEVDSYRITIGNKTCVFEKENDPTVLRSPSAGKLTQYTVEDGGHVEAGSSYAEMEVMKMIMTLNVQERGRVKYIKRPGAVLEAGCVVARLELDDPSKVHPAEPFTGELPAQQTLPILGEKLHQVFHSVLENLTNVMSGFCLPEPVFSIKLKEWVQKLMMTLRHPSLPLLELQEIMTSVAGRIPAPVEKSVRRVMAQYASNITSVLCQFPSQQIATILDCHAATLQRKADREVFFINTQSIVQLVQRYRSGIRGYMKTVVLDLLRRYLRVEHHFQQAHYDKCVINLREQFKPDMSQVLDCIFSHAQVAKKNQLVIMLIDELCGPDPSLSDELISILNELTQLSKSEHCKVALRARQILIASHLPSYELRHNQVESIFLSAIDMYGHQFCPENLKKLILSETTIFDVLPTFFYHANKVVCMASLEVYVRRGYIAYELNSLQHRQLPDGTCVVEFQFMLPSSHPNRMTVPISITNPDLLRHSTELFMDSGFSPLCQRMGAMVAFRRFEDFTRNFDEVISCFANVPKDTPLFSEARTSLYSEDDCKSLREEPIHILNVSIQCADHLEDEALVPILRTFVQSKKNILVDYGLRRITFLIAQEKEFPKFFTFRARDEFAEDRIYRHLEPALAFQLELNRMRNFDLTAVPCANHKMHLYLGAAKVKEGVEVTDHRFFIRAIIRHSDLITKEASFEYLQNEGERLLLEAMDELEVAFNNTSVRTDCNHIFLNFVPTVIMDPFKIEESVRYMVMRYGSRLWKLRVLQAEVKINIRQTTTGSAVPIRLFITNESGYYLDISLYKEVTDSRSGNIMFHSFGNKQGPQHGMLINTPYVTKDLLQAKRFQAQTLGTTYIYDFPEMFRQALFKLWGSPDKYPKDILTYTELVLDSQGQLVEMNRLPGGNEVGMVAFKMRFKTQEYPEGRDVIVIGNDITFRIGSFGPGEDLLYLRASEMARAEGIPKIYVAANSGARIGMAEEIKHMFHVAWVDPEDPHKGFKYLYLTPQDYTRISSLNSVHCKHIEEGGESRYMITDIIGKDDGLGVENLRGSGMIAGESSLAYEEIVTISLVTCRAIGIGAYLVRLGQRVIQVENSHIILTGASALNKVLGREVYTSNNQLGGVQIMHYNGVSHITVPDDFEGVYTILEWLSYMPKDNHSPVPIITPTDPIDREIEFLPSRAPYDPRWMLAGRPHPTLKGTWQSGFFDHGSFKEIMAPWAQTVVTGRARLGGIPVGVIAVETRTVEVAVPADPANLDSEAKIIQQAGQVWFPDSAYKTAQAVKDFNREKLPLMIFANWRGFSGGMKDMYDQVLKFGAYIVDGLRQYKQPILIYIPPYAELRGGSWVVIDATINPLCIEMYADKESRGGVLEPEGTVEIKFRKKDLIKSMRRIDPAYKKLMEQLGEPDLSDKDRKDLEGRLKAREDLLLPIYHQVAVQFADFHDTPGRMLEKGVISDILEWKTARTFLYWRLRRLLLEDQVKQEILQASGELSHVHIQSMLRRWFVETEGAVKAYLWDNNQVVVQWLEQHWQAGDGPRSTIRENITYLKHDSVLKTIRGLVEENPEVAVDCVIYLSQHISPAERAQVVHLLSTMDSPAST
Description: The cloning of the full length human muscle-type ACCβ cDNA and expression in HEK293 cells (ATCC, #CRL-1573) was performed as follows. The ACCβ cDNA was amplified by the polymerase chain reaction (PCR) and was cloned using standard recombinant DNA techniques. The PCR reaction was performed with the Expand Long Template PCR System (Roche Molecular Biochemicals, #1 681 8340) and 0.5 ng of cDNA from human skeletal muscle as template. The primers used for PCR amplification were designed on the basis of the published sequence of the human ACCβ cDNA isolated from a human liver cDNA library (Abul-Elheiga et al. J. Biol Chem. 272, 10669-10677, 1997). The sequence of the forward primer ACCB1 was 5′-[…]-3′; it includes a NheI restriction cleavage site for subcloning and a Kozak translation initiation consensus sequence preceding the ATG start codon. The sequence of the reverse primer ACCB8 was 5′-[…]-3′; it includes a stop codon and a XhoI restriction cleavage site for subcloning. The amplified DNA fragment of approximately 7.4 kb was cloned into a mammalian expression vector. The resulting plasmid isolates, pRF33A, B, C, D, and E were individually transfected in human embryonic kidney 293 cells (HEK293) using a standard lipid transfection method. Cell extracts of transfected cells were prepared in a lysis buffer containing 0.4 mg/ml digitonin and enzyme activity was determined using a radiometric ACC activity assay as described below. Plasmid pRF33D gave the highest activity and was chosen for large scale transfections of HEK293 cells and enzyme purification.
Since ACC enzyme activities in crude cell lysates were very low, enrichment of ACCβ enzyme expressed in HEK293 cells was achieved by a single anion exchange chromatography step. Cell lysates were run over a 5 ml Econo Pac High Q column (Bio-Rad, #732-0027). Bound proteins were eluted by a gradient of NaCl from 0 to 1 M in 50 mM Tris-HCl, pH 7.5, 1 mM DTT, 5% glycerol. Fractions containing high ACCβ enzyme activity were pooled and stored at −20° C.
Standard ACCβ enzyme assays, in a total volume of 100 μl, contained 50 mM HEPES-KOH, pH 7.5, 10 mM K-citrate, 10 mM MgSO4, 1 mM ATP, 0.1 mM DTT, 2% DMSO, 0.1 mg/ml fatty acid-free BSA, 0.2 mM acetyl-CoA, 2 mM KHCO3, 0.2 mM [^14C]NaHCO3 (50-60 mCi/mmol) and cell lysate or purified ACCβ enzyme. Reactions were incubated at 37° C. for 45 min. and stopped by the addition of 50 μl of 2 N HCl. Terminated reactions were incubated at 50° C. over night to evaporate non-incorporated [^14C]NaHCO3. [^14C]-labeled malonyl-CoA reaction product was quantitated by liquid scintillation counting after the addition of 20 μl of Microscint 20 (Canberra Packard, #6013621) on a TopCount NXT microplate scintillation counter (Canberra Packard).
Inhibition of ACCβ activity was determined at saturating substrate concentrations with two-fold serial dilutions of test compounds spanning a concentration range of at least two log units. IC50 values were calculated with the GraFit software (Erithacus Software Ltd.). Kinetic parameters (Km, Vmax and K0.5) were determined by varying one substrate (or allosteric effector) in a two-fold serial dilution over a concentration range of at least two log units while keeping all other substrates at constant saturating concentrations. Fitting to the Michaelis-Menten equation (for calculation of Km of substrates) and fitting to the Hill equation (for calculation of K0.5of the allosteric activator K-citrate) was done with the GraFit software. To determine the mode of action of Soraphens, determinations of Km for ATP and acetyl-CoA and of K0.5 for K-citrate were repeated in the absence and in the presence of the three different Soraphens at 0.5, 1 and 2 times their IC50 and the data were fitted to the equation for non-competitive inhibition with the GraFit software.

[2] = test system: HepG2 cells; assay: Fatty acid (palmitate) oxidation assay with human liver hepatoma cells HepG2; assay type: cell-based; conditions: HepG2, 10 μM
Description: For routine passaging, HepG2 cells (American Type Culture Collection, ATCC) were grown in T75 flasks (Falcon, #353136) in 15 ml of Dulbecco's modified Eagle medium (DMEM, Sigma, #D5796), containing 10% heat inactivated fetal bovine serum (FBS, Summit Biotechnology, #S-100-05) and 1% Penicillin/Streptomycin (Sigma, #P4333). […] The cells were passaged once per week by trypsinization and an additional change of medium was done after 3 to 4 days after passaging.

[3] = test system: differentiated L6 cells; assay: Fatty acid (palmitate) oxidation assay with differentiated rat L6 muscle cells;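 note: differentiated rat L6 myotubes fed [14C]-palmitate, with oxidation read as 14CO2 trapped on filters and counted by liquid scintillation after 3 to 8 h at 37 °C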
Description: Labeling medium to assay oxidation of fatty acids was composed of glucose-deficient DMEM containing 3.7 g/l NaHCO3, 25 mM HEPES-NaOH, 0.5% fatty acid-free bovine serum albumin (BSA), 0.1% ethanol, 0.5% DMSO (or test compounds dissolved in DMSO), 5 mM D-glucose, and 16 μM unlabeled palmitate plus 0.25 μM [U-^14C]palmitate (approx. 800 mCi/mmol). After the addition of labeling medium, the cell culture plates were sealed air tight with self adhesive Super Sealing Film (Life Systems Design, #02-2796-3001). Before sealing, twelve 1 cm^2 squares of filter paper (Schleicher & Schuell, #GB004) pretreated with 50 μl of highly basic tissue solubilizer solution NCSII (Amersham Pharmacia, #NNCS-502) were attached to the lower side of the sealing film. Upon sealing of the tissue culture plates, the filters were positioned in the center above each well, and served to capture the evolving ^14CO2 that was produced by the cells in each individual well. After an incubation between 3 to 8 hours at 37° C., the filters were removed from the sealing film and the captured ^14CO2 was quantitated by liquid scintillation counting with 2 ml of scintillation cocktail BCS-NA (Amersham Pharmacia, #NBCS204) in a Tri-Carb liquid scintillation counter (Canberra Packard).
Cultivation of the differentiating rat muscle cell line L6 for fatty acid oxidation assays was performed as follows. For routine passaging, L6 cells (ATCC) were grown in T75 flasks in 15 ml of MEM Alpha medium (Gibco BRL Life Technologies, #22571-038), containing 10% heat inactivated FBS and 1% antibiotic/antimycotic solution (Gibco BRL Life Technologies, #15240-062). Incubation was done at 37° C. in a humid atmosphere containing 5% CO2. The cells were passaged twice per week by trypsinization.
For fatty acid oxidation assays, each well of a 12-well tissue culture plate was seeded with 2 to 5×10^4 cells in 1 ml of MEM Alpha, 10% FBS, 1% antibiotic/antimycotic solution. After 3 days, medium was exchanged by 1 ml of the same, fresh medium. After 5 days, medium was exchanged again, this time by 1 ml of medium containing 2% FBS, 1% antibiotic/antimycotic solution. After 7 days, the cells were fully differentiated and formed large multinucleated myotubes. At this stage, the medium was replaced by 1 ml of glucose-deficient DMEM supplemented with 3.7 g/l NaHCO3 and 25 mM HEPES-NaOH followed by a starvation period of 2 to 6 hours at 37° C. […] The compounds were tested at three different concentrations (2, 0.2 and 0.02 μM) on differentiated L6 cells.

[4] = L6, repeated test Table 3, 0.002 μM
[5] = L6, repeated test Table 3, 0.02 μM
[6] = L6, repeated test Table 3, 0.2 μM

For CO[C@H]1CCCC[C@@H](c2ccccc2)OC(=O)[C@@H](C)C2(O)O[C@H]([C@@H](C)[C@H](O)[C@H]2OC)[C@@H](C)/C=C/[C@H]1OC [Cpd (Ia), Soraphen A 1-α], the IC50 [1] was 3 nM, the “Effect on K0.5 of K-citrate” value [1] was “did not change” and the “Effect on Vmax of the ACC enzyme reaction” value [1] was “dose-dependent decrease”. The “Effect on K0.5 of K-citrate” value ([1]; listed as Soraphen A 1-α) was “little effect”, the “Effect on Vmax of the ACC enzyme reaction” value ([1]; listed as Soraphen A 1-α) was “reduced” and the “Fold stimulation over palmitate oxidation rate in the absence of test compounds” value [2] was 3.5 fold. The Palmitate oxidation rate [2] was 13.7 +/− 0.7 pmol · h^−1 · well^−1, the Fold stimulation ([3]; L6, Table 2, 0.02 μM) was 1.8 fold and the Palmitate oxidation rate ([3]; L6, Table 2, 0.02 μM) was 16.4 +/− 1.0 pmol · h^−1 · well^−1. For the same compound, the Fold stimulation ([3]; L6, Table 2, 0.2 μM) was 1.8 fold, the Palmitate oxidation rate ([3]; L6, Table 2, 0.2 μM) was 15.8 +/− 0.5 pmol · h^−1 · well^−1 and the Fold stimulation ([3]; L6, Table 2, 2 μM) was 1.7 fold. The Palmitate oxidation rate ([3]; L6, Table 2, 2 μM) was 14.9 +/− 0.4 pmol · h^−1 · well^−1, the Fold stimulation [3, 4] was 1.5 fold and the Palmitate oxidation rate [3, 4] was 8.3 +/− 0.0 pmol · h^−1 · well^−1. The Fold stimulation [3, 5] was 2.2 fold, the Palmitate oxidation rate [3, 5] was 12.1 +/− 1.0 pmol · h^−1 · well^−1 and the Fold stimulation [3, 6] was 2.7 fold. The Palmitate oxidation rate [3, 6] was 14.6 +/− 0.1 pmol · h^−1 · well^−1 and the EC50 ([3]; Rattus norvegicus, L6, read-out: EC50 for stimulation of palmitate oxidation) was 2 to 20 nM.
